From patent US20250262152A1, “DEVICES, SYSTEMS, KITS, AND METHODS FOR DRUG DELIVERY TO THE SPINAL CORD” (Ohio State Innovation Foundation, priority 2022, published 2025)

Assay: proof-of-principle fluorescence tracer study: delivery to the spinal cord with dumbbell-shaped dual chamber stentgraft and histamine portal
Assay type: in vivo
Protocol: As a proof-of-principle study, we evaluated this strategy by using a dumbbell-shaped dual chamber stentgraft to deliver a fluorescent tracer (fluorescein dye) to the spinal cord. In this fluorescence tracer study, delivery of the tracer to the spinal cord using the dumbbell stentgraft was performed using a histamine portal (see FIGS. 3A-3C and FIG. 5). The dual chamber stent was used to deliver a “pulse” of histamine specifically to the spinal cord region of interest to create a “portal” in the BBB (i.e., a local increase in BBB permeability).
Dual chamber, retrievable stent graft: Stents were laser cut from the shape memory alloy, nitinol, and thermally shapeset into a dumbbell shape. The scaffold was affixed to a permanently attached delivery/retrieval wire, encapsulated in the polymer polytetrafluoroethelene (Zeus, Inc) with a perfusion cannula to the outer chamber and compressed into a sheath for endovascular delivery.

SMILES: O=C1OC2(c3ccc(O)cc3Oc3cc(O)ccc32)c2ccccc21 [fluorescein]
- staining of spinal cord cross sections viewed under UV Woods lamp (histamine pulse followed by tracer delivered to outer chamber of dual chamber stentgraft, FIG. 3C): successful staining of the entirety of the spinal cord
- delivery of fluorescein to the spinal cord (local administration in combination with portal agent (histamine) as compared to intravascular tracer injection alone, FIG. 5): much higher
